Data published in patent US11607421B2, “Ethanolamine-based lipid biosynthetic compounds, method of making and use thereof” (Metanoi Therapeutics, Inc., priority 2016, dated 2023).
Values after ≈ are worked out from the molar mass of the structure shown.

Assays:
[1] = tested on: p21, PARP1, Bcl-2, HIF1-α, Bax and Bid; test: Real time-PCR transcription levels; format: cell-based, human; settings: PC-3 cells, 2 mg/ml Etn for 48 h
Protocol: (§1) OCR was measured using an oxygen electrode.
To test this hypothesis, HIF1-α expression levels were analyzed in Etn-treated tumors and PC-3 cells. […] DMOG, an HIF1-α activator, was then employed to test whether Etn-mediated cell death in PC-3 cells was associated with HIF1-α stabilization (active HIF1-α signaling).
RNA was extracted from control and 2 mg/ml Etn-treated PC-3 cells using a RNeasy kit from Qiagen (Hilden, Germany), and quantified using NanoDrop. Reverse transcription of RNA was performed for the first strand cDNA synthesis using a first strand synthesis kit (GoScript™ Reverse Transcription System-A5000) from Promega (Madison, Wis.). The quality of synthesized cDNAs was checked on an agarose gel. RT-PCR of cDNA samples (in duplicates) was performed using iQ™ SYBR® Green Supermix from Bio-Rad (Hercules, Calif.) as per manufacturer's instructions. The RT-PCR primers were designed manually, checked with the primer3 software and ordered from Sigma (St Louis, Mo.).

[2] = target: CYP2C8 (Homo sapiens, UniProt P10632); test: CYP inhibition in human liver microsomes
CYP2C8, sequence (P10632 whole entry): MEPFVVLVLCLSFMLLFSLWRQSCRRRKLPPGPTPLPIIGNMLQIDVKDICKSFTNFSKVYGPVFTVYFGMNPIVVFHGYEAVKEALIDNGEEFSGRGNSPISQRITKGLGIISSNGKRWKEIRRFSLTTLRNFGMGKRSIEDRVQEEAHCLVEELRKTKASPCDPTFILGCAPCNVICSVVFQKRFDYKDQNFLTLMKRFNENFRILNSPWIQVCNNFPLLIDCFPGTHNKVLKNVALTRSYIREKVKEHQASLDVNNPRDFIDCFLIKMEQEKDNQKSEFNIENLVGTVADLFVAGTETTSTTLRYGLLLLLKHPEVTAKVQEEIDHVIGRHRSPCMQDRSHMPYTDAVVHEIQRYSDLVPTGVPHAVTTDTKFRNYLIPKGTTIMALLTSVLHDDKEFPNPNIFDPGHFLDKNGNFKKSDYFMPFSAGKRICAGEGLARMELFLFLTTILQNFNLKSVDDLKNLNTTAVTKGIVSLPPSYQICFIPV

[3] = target: CYP2D6 (Homo sapiens, UniProt P10635); test: CYP inhibition in human liver microsomes
CYP2D6, sequence (P10635 whole entry): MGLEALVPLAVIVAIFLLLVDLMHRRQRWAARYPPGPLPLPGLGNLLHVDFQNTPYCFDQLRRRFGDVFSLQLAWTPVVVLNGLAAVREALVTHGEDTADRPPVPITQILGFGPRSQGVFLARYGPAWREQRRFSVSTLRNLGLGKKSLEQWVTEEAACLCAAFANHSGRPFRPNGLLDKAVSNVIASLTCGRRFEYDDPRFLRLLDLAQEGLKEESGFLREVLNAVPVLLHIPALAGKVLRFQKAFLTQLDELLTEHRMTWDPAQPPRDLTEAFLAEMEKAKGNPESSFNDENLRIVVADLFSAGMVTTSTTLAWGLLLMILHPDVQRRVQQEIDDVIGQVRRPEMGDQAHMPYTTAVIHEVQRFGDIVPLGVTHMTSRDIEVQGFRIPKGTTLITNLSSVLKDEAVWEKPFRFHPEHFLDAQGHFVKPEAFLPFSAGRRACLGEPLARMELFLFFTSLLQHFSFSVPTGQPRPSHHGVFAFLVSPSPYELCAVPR

[4] = design: species or system BALB/c mice; settings: mouse, in vivo, 40 mg/kg
Protocol: Mice were sacrificed after 24, 48 h and 1, 2, 3, 4 weeks and spleens were collected. Total splenocytes were counted after lysis of RBC with RBC lysis buffer. After this, splenocytes where incubated with anti-CD16/CD32 antibody to block Fc receptors and then labeled with anti-CD3-APC, anti-CD4-Alexa488, anti-CD8-Alexa488, anti-DX5-FITC, or anti-CD19-FITC antibodies according to the manufacturer's instructions. Labeled cells were analyzed by flow cytometry using an LSRFortessa Flow cytometer (BD Biosciences, CA). Data from this analysis was analyzed using FlowJo software (TreeStar, OR).

[5] = tested on: Ki67; test: Immunohistochemical staining of PC-3-luc xenografts; format: in vivo, mice; settings: Etn-treated tumors (40 mg/kg)
Protocol: as §1
While ˜62% cells were Ki67-positive in untreated control tumors, Ki67 positivity was reduced to ˜40% in Etn-treated tumors (FIG. 14, panel Dii).
Tumors were formalin-fixed, paraffin-embedded and 5 μm thick prostate tumor sections were stained for Ki67 and c-PARP, and prostate cancer TMA (US Biomax, Derwood, Mass.) was immunostained for choline kinase. All stained slides were examined by a pathologist in a blinded-manner.

[6] = tested on: PC-3-luc; test: PC-3-luc prostate tumor xenograft
[7] = tested on: PC-3 cells; test: MTT cell proliferation assay; format: cell-based, human
Protocol: Next, a clonogenic cell survival assay was performed to assess the reproductive capacity of cells upon drug removal.
After 48 h, drug containing medium was replaced by medium containing MTT (tetrazolium bromide) at a concentration of 0.5 mg/ml. The yellow tetrazolium salt is reduced to insoluble purple formazan by viable cells. After 4 h of incubation in dark, formazan crystals produced by viable cells were dissolved by 200 μl DMSO and the amount of formazan crystals formed was quantified by recording the absorbance at 570 nm using multi-well plate reader. […] After 10 days, colonies were fixed with 4% formaldehyde, stained with crystal violet and counted.

[8] = tested on: plasma proteins; test: Binding to proteins in plasma (ultrafiltration); format: in vitro ADME; settings: pH 7.4, 37° C., 30 min
Protocol: Plasma from human, dog, rat and mouse were thawed and incubated at 37° C. The pH of the plasma was adjusted to 7.4 using dilute hydrochloric acid. A 5 μL aliquot of ethanolamine (2 mM) was spiked into 995 μL of plasma and incubated at 37° C. for 30 min in CO2 incubator. One mL aliquots of plasma were transferred to ultrafiltration tubes for analysis. All ultrafiltration tubes were centrifuged at 1000 g for 20 min. Samples from top and bottom chamber of ultrafiltration tube were collected. Equal volume of blank plasma and ultrafiltrate were mixed to ultrafiltrate and plasma to make the matrix same. Samples were processed by using acetonitrile containing internal standard and subjected to LC/MS/MS analysis.

[9] = Pharmacokinetic studies, single oral and intravenous dose; format: in vivo, BALB/c mice
Protocol: Samples (100 μl) were drawn at 0, 15, 30 and 60 min from SGF reaction-vials and at 0, 30, 60 and 120 min from SIF reaction-vials, quenched with acetonitrile, vortex-mixed, and centrifuged before supernatant analysis by LC-MS/MS analysis. […] For PK studies, a sparse sampling design with 3 mice per time point was used to collect blood samples at 5, 10, 15, 30 min and 1, 2, 3, 4, 5 and 6 h in K2EDTA-coated tubes. The pharmacokinetic parameters (AUClast, Cmax, CL and Vss) were calculated using non-compartmental analysis tool of Phoenix WinNonlin software (version 6.3).
Nine animals per group were used for PK studies. A sparse sampling design was used to collect blood samples from animals at 5 min, 10 min, 15 min, 30 min, 1, 2, 3, 4, 5, and 6 h in K2EDTA coated tubes. Plasma was collected from blood by centrifugation of samples at 8000 g for 10 min. Plasma samples were stored below −60° C. until further analysis.
PK parameters were calculated from the concentration-time data using the non-compartmental analysis tool of Phoenix WinNolin® software (version 6.3, Pharsight, St Louis, Mo.). The area under the concentration time curve (AUClast) was calculated by the linear trapezoidal rule. Following oral administration, peak concentration (Cmax) and time for the peak concentration (Tmax) were the observed values. The clearance (CL) and volume of distribution (Vss) were estimated following IV dose administration. The elimination rate constant value (k) was obtained by linear regression of the log-linear terminal phase of the concentration-time profile using at least three declining concentrations in terminal phase with a correlation coefficient of >0.8. The terminal half-life value (T1/2) was calculated using the equation ln 2/k. Oral bioavailability was calculated by taking the ratio of dose normalized AUClast following oral administration to IV administration.

[10] = target: CYP2C19 (Homo sapiens, UniProt P33261); test: CYP inhibition in human liver microsomes
CYP2C19, sequence (P33261 whole entry): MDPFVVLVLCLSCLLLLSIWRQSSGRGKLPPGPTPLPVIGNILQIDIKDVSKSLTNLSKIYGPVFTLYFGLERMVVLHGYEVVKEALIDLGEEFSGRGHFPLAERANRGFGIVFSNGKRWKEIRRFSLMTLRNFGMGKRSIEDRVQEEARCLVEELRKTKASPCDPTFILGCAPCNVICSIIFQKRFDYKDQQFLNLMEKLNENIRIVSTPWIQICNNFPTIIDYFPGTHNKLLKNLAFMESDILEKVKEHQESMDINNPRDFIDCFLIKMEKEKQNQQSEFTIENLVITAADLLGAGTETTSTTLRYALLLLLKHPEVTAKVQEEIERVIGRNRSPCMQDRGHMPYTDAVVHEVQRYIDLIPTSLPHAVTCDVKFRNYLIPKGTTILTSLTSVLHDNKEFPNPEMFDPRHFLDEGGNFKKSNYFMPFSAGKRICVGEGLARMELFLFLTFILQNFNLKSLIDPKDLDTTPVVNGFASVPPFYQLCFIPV

[11] = 40 mg/kg Etn pH 5 (phosphoric acid), oral gavage, 4 weeks

For `NCCO` [Etn, monoethanolamine], the “reduction in HIF1-α transcript levels compared to control cells” value [1] was 50 fold, the “transcription levels of cell-cycle and apoptosis regulators” value [1] was “upregulated p21, PARP1, Bax and Bid, and downregulated Bcl-2” and the IC50 [2] was over 100 µM. The IC50 [3] was over 100 µM, the immunotoxicities [4] was “does not induce immunotoxicities” and the Ki67 positivity [5] was about 40%. For the same compound, the body weight ([6]; 40 mg/kg Etn oral, over the course of treatment, both models) was “no apparent changes in body weight”, the “reduction in tumor volume vs untreated control tumors” value [6, 11] was about 67% and the “reduction in tumor weight vs untreated control tumors” value [6, 11] was about 55%. For the same compound, the “Etn-induced cell death with HIF1-α stabilization” value ([7]; 35 μg/mL DMOG pre-treatment 4 h, then 1 and 2 mg/ml Etn with DMOG 48 h) was “more effective in reducing survival in PC-3 cells”, the “reduction of cell survival” value ([7]; 0.5 mg/ml Etn, 48 h, pH 7.4 (siRNA experiment)) was about 38% and the reduction of survival ([7]; 0.5 mg/ml Etn, 48 h, range given for PC-3, DU145 and C4-2B together) was 30-52%. For the same compound, the “reduction in cell proliferation” value ([7]; 1 mg/ml Etn alone, 48 h, pH 7.4) was about 33%, the “reduction in cell proliferation” value ([7]; 1 mg/ml Etn in the presence of 1 μM CKI, 48 h, pH 7.4) was about 17% and the IC50 ([7]; Homo sapiens, PC-3, 48 h, pH 7.4, MTT, 48 h, pH 7.4, read-out: half-maximal concentration (IC50)) was about 880 µg/mL (≈ 14.4 mM). The “half-maximal concentration (IC50)” value ([7]; MTT, 48 h, pH 7.4) was 880 µg/mL, the percent bound ([8]; dog plasma) was “less than 85%” and the percent bound ([8]; human plasma) was “less than 85%”. The percent bound ([8]; mouse plasma) was “less than 85%”, the percent bound ([8]; rat plasma) was “less than 85%” and the “AUClast of Etn compared to PhosE” value ([9]; oral 40 mg/kg Etn) was 13 fold. The “Cmax of Etn compared to PhosE” value ([9]; oral 40 mg/kg Etn) was 32 fold, the “time to reach peak plasma concentration” value ([9]; oral Etn administration, analyte Etn) was 10 min and the IC50 [10] was over 100 µM.
